In general, Ki refers to the dissociation constant of the complex between target and ligand, obtained from inhibition or displacement. The IC50 is the point on the concentration scale where inhibition reaches its midpoint.

One test deals with KAT2A (Homo sapiens (Human), UniProt Q92830). Nature of the test: KAT2A acetyltransferase biochemical assay (RapidFire mass spectrometry, AcCoA to CoA).
Another test relates to H3K9AC (HT1080 cells). The experiment in a line: H3K9AC Sandwich ELISA Assay in HT1080 cells (KAT2A primary cell-based screening assay). The arrangement: species or system Human. The note with it: Homo sapiens, HT-1080, H3K9AC sandwich ELISA. An outline of the steps:
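HT1080 fibrosarcoma cells seeded 16 h, then treated 24 h at 37 °C with 10-point 1:3 compound dilutions (top 10 µM final, 0.1% DMSO). Acid lysates neutralized with butyrate/PMSF; H3K9ac measured by total-H3-capture sandwich ELISA with luminescent HRP readout, IC50 by four-parameter fit.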
For orientation: An ELISA detects its analyte on a solid surface through an enzyme-linked reagent.

The target of a further test is KAT2B (Homo sapiens (Human), UniProt Q92831). Nature of the test: KAT2B acetyltransferase biochemical assay (RapidFire mass spectrometry, AcCoA to CoA).
For a further test, the system named is MM.1S cells. The experiment in a line: MM1.S 10 Day Proliferation Assay (CellTiter-Glo). The class given is cell-based, Human. To be noted: Homo sapiens, MM1.S, 240 h. An outline of the steps:
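MM.1S cells, 500/well in ultra-low-attachment plates, were pre-incubated 16 h, then exposed to a 10-point 1:3 dilution series (top 10 μM final, 0.1% DMSO) for 10 days at 37 °C, with compound-containing medium refreshed at day 5. Viability was read by CellTiter-Glo luminescence; IC50 came from four-parameter fit.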
For orientation: Cellular ATP, detected with luciferase, serves as a proxy for viable cell number.

The mark [1] stands for this setting: read-out: KAT2A Ki at 1 μM AcCoA, 5 μM H3 1-21 peptide, 0.5 nM KAT2A, 90-minute reaction.
The mark [2] stands for this setting: read-out: KAT2B Ki at 1 μM AcCoA, 1 μM AcCoA, 5 μM H3 1-21 peptide, 0.5 nM KAT2B, 90-minute reaction.
The mark [3] stands for this setting: KAT2A Ki at 1 μM AcCoA, 5 μM H3 1-21 peptide, 0.5 nM KAT2A, 90-minute reaction.

Like-named read-outs stand apart in the source and are kept apart here.

Chain of KAT2B (Q92831 2-832): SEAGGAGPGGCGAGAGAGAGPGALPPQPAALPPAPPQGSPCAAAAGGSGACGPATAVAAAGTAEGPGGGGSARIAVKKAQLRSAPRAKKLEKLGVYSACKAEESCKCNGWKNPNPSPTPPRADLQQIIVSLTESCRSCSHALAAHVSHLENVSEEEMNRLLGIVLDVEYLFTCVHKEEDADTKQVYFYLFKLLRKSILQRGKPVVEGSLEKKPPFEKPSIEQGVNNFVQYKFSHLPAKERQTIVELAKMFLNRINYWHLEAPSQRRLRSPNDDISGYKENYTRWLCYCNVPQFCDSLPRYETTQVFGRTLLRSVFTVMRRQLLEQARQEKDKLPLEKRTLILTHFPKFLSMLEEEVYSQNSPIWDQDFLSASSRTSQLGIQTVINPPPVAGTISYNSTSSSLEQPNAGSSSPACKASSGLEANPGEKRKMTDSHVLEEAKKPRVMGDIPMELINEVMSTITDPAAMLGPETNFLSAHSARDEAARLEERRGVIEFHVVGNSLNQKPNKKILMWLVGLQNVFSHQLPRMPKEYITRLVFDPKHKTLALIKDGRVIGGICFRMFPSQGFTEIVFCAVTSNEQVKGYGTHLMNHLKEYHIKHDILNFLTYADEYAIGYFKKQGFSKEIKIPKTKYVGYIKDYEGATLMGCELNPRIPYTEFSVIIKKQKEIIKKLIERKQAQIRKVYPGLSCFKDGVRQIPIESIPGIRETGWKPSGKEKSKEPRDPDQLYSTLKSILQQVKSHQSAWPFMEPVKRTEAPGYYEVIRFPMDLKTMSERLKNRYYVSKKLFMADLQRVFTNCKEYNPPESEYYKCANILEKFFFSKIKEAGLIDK
Chain of KAT2A (Q92830 whole entry): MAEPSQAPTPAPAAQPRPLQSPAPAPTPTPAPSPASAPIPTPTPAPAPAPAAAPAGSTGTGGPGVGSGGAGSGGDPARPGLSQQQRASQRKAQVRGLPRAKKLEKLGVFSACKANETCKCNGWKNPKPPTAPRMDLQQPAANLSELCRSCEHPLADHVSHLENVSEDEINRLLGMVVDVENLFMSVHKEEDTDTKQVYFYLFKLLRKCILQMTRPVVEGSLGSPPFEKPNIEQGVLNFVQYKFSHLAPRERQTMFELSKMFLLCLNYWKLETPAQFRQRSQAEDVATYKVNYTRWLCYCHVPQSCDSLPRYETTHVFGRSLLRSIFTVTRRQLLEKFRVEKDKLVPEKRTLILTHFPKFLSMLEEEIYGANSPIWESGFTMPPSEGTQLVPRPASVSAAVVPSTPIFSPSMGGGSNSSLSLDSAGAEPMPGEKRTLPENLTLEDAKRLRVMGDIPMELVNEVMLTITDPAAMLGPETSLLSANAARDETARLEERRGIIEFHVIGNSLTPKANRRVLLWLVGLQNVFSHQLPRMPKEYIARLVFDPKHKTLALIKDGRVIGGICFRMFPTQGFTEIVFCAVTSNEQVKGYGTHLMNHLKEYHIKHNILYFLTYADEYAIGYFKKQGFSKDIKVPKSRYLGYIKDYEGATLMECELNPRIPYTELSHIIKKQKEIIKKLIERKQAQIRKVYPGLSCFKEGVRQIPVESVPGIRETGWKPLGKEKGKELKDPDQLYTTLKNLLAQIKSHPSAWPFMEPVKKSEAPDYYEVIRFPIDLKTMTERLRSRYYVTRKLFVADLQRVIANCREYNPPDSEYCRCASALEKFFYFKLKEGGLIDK

For `CC1(C)C[C@H](C(=O)N[C@@H]2CC[C@@H](Oc3cccc(C(=O)O)c3-c3cccc(F)c3C3CCC3)C2)CN1` (atropisomer, axis not shown) [Example H9, (1ψ)-2′-cyclobutyl-6-{[(1R,3R)-3-{[(3ξ)-5,5-dimethylpyrrolidine-3-carbonyl]amino}cyclopentyl]oxy}-3′-fluoro[1,1′-biphenyl]-2-carboxylic acid], the Ki at KAT2A (setting [1]) amounted to 33 nM; on KAT2B (setting [2]), 115 nM. Further, in the test with H3K9AC (HT1080 cells), the IC50 turned out to be 90 nM.
`CC1(C)C[C@](F)(C(=O)N[C@@H]2CC[C@@H](Oc3ccc(C(C)(C)C(=O)NS(C)(=O)=O)cc3-c3cccc(F)c3C3CCC3)C2)CN1` (single isomer, unassigned) [Example C6]: the results for the Ki on KAT2A (setting [1]) and at KAT2B (setting [2]) were 2.75 nM and 14.8 nM, respectively. The molecule further displayed an IC50 in the test on H3K9AC (HT1080 cells) of 89.7 nM.
For `CN1CC2(CCOCC2)C[C@H]1C(=O)N[C@@H]1CC[C@@H](Oc2ccc(C(=O)O)cc2-c2ccccc2C2CCC2)C1` (single isomer, unassigned) [Example D2], the Ki at KAT2A (setting [3]) worked out at 70.3 nM; on KAT2B it was 46.8 nM. Besides, 30.6 nM corresponded to half-maximal inhibition in the test with H3K9AC (HT1080 cells) (IC50).
With `CCn1cc(-c2ccc(O[C@@H]3CC[C@@H](NC(=O)[C@@]4(F)CNC5(CCC5)C4)C3)c(-c3cccc(F)c3C3CCC3)c2)c(C(=O)O)n1` (single isomer, unassigned) [Example J13], the Ki at KAT2A (setting [1]) was found to be 0.14 nM; at KAT2B (setting [2]) it was 0.62 nM. Moreover, half-maximal inhibition with H3K9AC (HT1080 cells) (IC50) required 10.2 nM.
Consider `CC(C)c1ccccc1-c1cc(CC(=O)NS(=O)(=O)C(C)C)ccc1O[C@@H]1CC[C@@H](NC(=O)[C@@]2(F)CNC3(CCC3)C2)C1` [Example C55, (7S)-7-fluoro-N-[(1R,3R)-3-({5-[2-oxo-2-(propane-2-sulfonamido)ethyl]-2′-(propan-2-yl)[1,1′-biphenyl]-2-yl}oxy)cyclopentyl]-5-azaspiro[3.4]octane-7-carboxamide], for which the Ki at KAT2A (setting [1]) came out at 0.11 nM. The IC50 in the test on H3K9AC (HT1080 cells) came to 0.8 nM; with MM.1S cells it was 2.5 nM.
The matching figures for `CCc1c(F)cccc1-c1cc(CC(=O)NS(=O)(=O)C(C)C)ccc1O[C@@H]1CC[C@@H](NC(=O)[C@@]2(F)CNC3(CCC3)C2)C1` [Example C58, (7S)-N-[(1R,3R)-3-({2′-ethyl-3′-fluoro-5-[2-oxo-2-(propane-2-sulfonamido)ethyl][1,1′-biphenyl]-2-yl}oxy)cyclopentyl]-7-fluoro-5-azaspiro[3.4]octane-7-carboxamide]: 0.11 nM, 3.4 nM and 8.1 nM.
The matching figures for `CC(C)S(=O)(=O)NC(=O)C(C)(C)c1cnc(O[C@@H]2CC[C@@H](NC(=O)[C@@]3(F)CNC4(CCC4)C3)C2)c(-c2cccc(F)c2C2CCC2)c1` [Example C65, (7S)-N-[(1R,3R)-3-({3-(2-cyclobutyl-3-fluorophenyl)-5-[2-methyl-1-oxo-1-(propane-2-sulfonamido)propan-2-yl]pyridin-2-yl}oxy)cyclopentyl]-7-fluoro-5-azaspiro[3.4]octane-7-carboxamide]: 0.16 nM, 3.8 nM and 31.8 nM.
As to `CN1CC(C)(C)C[C@H]1C(=O)N[C@@H]1CC[C@@H](Oc2ccc(C(C)(C)C(=O)O)cc2-c2cccc(F)c2C2CCC2)C1` [Example D1, 2-[2′-cyclobutyl-3′-fluoro-6-({(1R,3R)-3-[(1,4,4-trimethyl-L-prolyl)amino]cyclopentyl}oxy)[1,1′-biphenyl]-3-yl]-2-methylpropanoic acid], the Ki at KAT2A (setting [1]) worked out at 4.05 nM. In addition, the IC50 with H3K9AC (HT1080 cells) worked out at 52.8 nM; in the test with MM.1S cells, 419 nM.
The matching figures for `CC(C)c1ccccc1-c1cc(CC(=O)O)ccc1O[C@@H]1CC[C@@H](NC(=O)[C@@H]2CC(C)(C)CN2C)C1` [Example D11, [2′-(propan-2-yl)-6-({(1R,3R)-3-[(1,4,4-trimethyl-L-prolyl)amino]cyclopentyl}oxy)[1,1′-biphenyl]-3-yl]acetic acid]: 91.9 nM, 98.5 nM and 497 nM.
`CN1CC(C)(C)C[C@H]1C(=O)N[C@@H]1CC[C@@H](Oc2ccc(CC(=O)NS(C)(=O)=O)cc2-c2cccc(F)c2C2CCC2)C1` [Example E2, N-{(1R,3R)-3-[(2′-cyclobutyl-3′-fluoro-5-{2-[(methanesulfonyl)amino]-2-oxoethyl}[1,1′-biphenyl]-2-yl)oxy]cyclopentyl}-1,4,4-trimethyl-L-prolinamide] yielded a Ki on KAT2A (setting [3]) of 0.66 nM. Moreover, the results for the IC50 with H3K9AC (HT1080 cells) and in the test with MM.1S cells were 10.8 nM and 61.4 nM, respectively.
For the molecule `[2H]C([2H])([2H])N1CC(C)(C)C[C@H]1C(=O)N[C@@H]1CC[C@@H](Oc2ccc(C(C)(C)C(=O)NS(C)(=O)=O)cc2-c2cccc(F)c2C2CCC2)C1` [Example E5], the Ki on KAT2A (setting [1]) was found to be 0.31 nM. Further, the IC50 in the test with H3K9AC (HT1080 cells) is 4.83 nM; in the test on MM.1S cells, 11.9 nM.
With `CN1CC(C)(C)C[C@H]1C(=O)N[C@@H]1CC[C@@H](Oc2ccc(C(C)(C)C(=O)NS(C)(=O)=O)cc2-c2ccccc2CC(F)(F)F)C1` [Example E6, N-[(1R,3R)-3-{[5-{1-[(methanesulfonyl)amino]-2-methyl-1-oxopropan-2-yl}-2′-(2,2,2-trifluoroethyl)[1,1′-biphenyl]-2-yl]oxy}cyclopentyl]-1,4,4-trimethyl-L-prolinamide], the Ki on KAT2A (setting [1]) came to 53 nM. In addition, the results for the IC50 in the test with H3K9AC (HT1080 cells) and in the test on MM.1S cells were 99 nM and 203 nM, respectively.
As to `CN1CC(C)(C)C[C@H]1C(=O)N[C@@H]1CC[C@@H](Oc2ccc(C(C)(C)C(=O)NS(C)(=O)=O)cc2-c2cccc(F)c2C2CC2)C1` [Example E7, N-{(1R,3R)-3-[(2′-cyclopropyl-3′-fluoro-5-{1-[(methanesulfonyl)amino]-2-methyl-1-oxopropan-2-yl}[1,1′-biphenyl]-2-yl)oxy]cyclopentyl}-1,4,4-trimethyl-L-prolinamide], on KAT2A (setting [1]), the Ki was 26.6 nM. Moreover, the values for the IC50 in the test with H3K9AC (HT1080 cells) and in the test on MM.1S cells were 34.2 nM and 202 nM, respectively.
In the case of `CCc1c(F)cccc1-c1cc(C(C)(C)C(=O)NS(C)(=O)=O)ccc1O[C@@H]1CC[C@@H](NC(=O)[C@@H]2CC(C)(C)CN2C)C1` [Example E10, N-{(1R,3R)-3-[(2′-ethyl-3′-fluoro-5-{1-[(methanesulfonyl)amino]-2-methyl-1-oxopropan-2-yl}[1,1′-biphenyl]-2-yl)oxy]cyclopentyl}-1,4,4-trimethyl-L-prolinamide], the Ki at KAT2A (setting [1]) stood at 26.4 nM. Moreover, the IC50 was determined as 21.3 nM in the test on H3K9AC (HT1080 cells) and 126 nM with MM.1S cells.
As for `CN1CC(C)(C)C[C@H]1C(=O)N[C@@H]1CC[C@@H](Oc2ccc(C(C)(C)C(=O)NS(C)(=O)=O)cc2-c2ccc(F)c(F)c2C2CCC2)C1` [Example E11, N-{(1R,3R)-3-[(2′-cyclobutyl-3′,4′-difluoro-5-{1-[(methanesulfonyl)amino]-2-methyl-1-oxopropan-2-yl}[1,1′-biphenyl]-2-yl)oxy]cyclopentyl}-1,4,4-trimethyl-L-prolinamide], on KAT2A (setting [1]), the Ki was 1.7 nM. Besides, the figures for the half-inhibitory concentration (IC50) in the test on H3K9AC (HT1080 cells) and in the test on MM.1S cells were 24.2 nM and 73.4 nM, respectively.
The matching figures for `CN1CC(C)(C)C[C@H]1C(=O)N[C@H]1C[C@H](COc2ccc(CC(=O)O)cc2-c2cccc(F)c2C2CCC2)C1` [Example F1, [2′-cyclobutyl-3′-fluoro-6-({(1S,3r)-3-[(1,4,4-trimethyl-L-prolyl)amino]cyclobutyl}methoxy)[1,1′-biphenyl]-3-yl]acetic acid]: 12.9 nM, 41.5 nM and 125 nM.
The molecule `CN1CC(C)(C)C[C@H]1C(=O)N[C@H]1C[C@H](COc2ccc(C(C)(C)C(=O)O)cc2-c2cccc(F)c2C2CCC2)C1` [Example F2, 2-[2′-cyclobutyl-3′-fluoro-6-({(1S,3r)-3-[(1,4,4-trimethyl-L-prolyl)amino]cyclobutyl}methoxy)[1,1′-biphenyl]-3-yl]-2-methylpropanoic acid] came in with a Ki at KAT2A (setting [3]) of 9.11 nM. Besides, the IC50 with H3K9AC (HT1080 cells) is 71.2 nM; in the test with MM.1S cells it was 625 nM.
As to `CN1CC(C)(C)C[C@H]1C(=O)N[C@H]1C[C@H](COc2ccc(C(C)(C)C(=O)NS(C)(=O)=O)cc2-c2cccc(F)c2C2CCC2)C1` [Example G2, N-[(1r,3S)-3-{[(2′-cyclobutyl-3′-fluoro-5-{1-[(methanesulfonyl)amino]-2-methyl-1-oxopropan-2-yl}[1,1′-biphenyl]-2-yl)oxy]methyl}cyclobutyl]-1,4,4-trimethyl-L-prolinamide], on KAT2A (setting [3]), the Ki worked out at 1.68 nM. Further, the IC50 in the test on H3K9AC (HT1080 cells) was found to be 9.38 nM; in the test with MM.1S cells, 56.9 nM.
In the case of `Cc1cc(NS(C)(=O)=O)n(-c2ccc(O[C@@H]3CC[C@@H](NC(=O)[C@@H]4CC(C)(C)CN4C)C3)c(-c3cccc(F)c3C3CCC3)c2)n1` [Example L1, N-[(1R,3R)-3-({2′-cyclobutyl-3′-fluoro-5-[5-(methanesulfonamido)-3-methyl-1H-pyrazol-1-yl][1,1′-biphenyl]-2-yl}oxy)cyclopentyl]-1,4,4-trimethyl-L-prolinamide], at KAT2A (setting [1]), the Ki came out at 0.16 nM. Further, the IC50 in the test with H3K9AC (HT1080 cells) was 7.01 nM; in the test with MM.1S cells it was 56 nM.

The values are drawn from patent US20250188030A1, “Biphenyl and Phenylpyridine Compounds” (Pfizer Inc., priority 2023, published 2025).
